From publication PMC4518100, “Design and Synthesis of New Benzimidazole and Pyrimidine Derivatives as α-glucosidase Inhibitor” (Iranian Journal of Pharmaceutical Research : IJPR, 2015)

Columns and labels:
yeast α-glucosidase = yeast α-glucosidase (Saccharomyces cerevisiae, UniProt P53341); experiment: Yeast α-glucosidase inhibition assay (pNPG substrate, absorbance at 405 nm); format: biochemical; details: qualitative statement
Procedure: (§1) In this study the inhibition study of both yeast and mammalian α-glucosidase were measured through the earlier reported bioassay method with minor changes ([4]). This test was carried out using the substrate p-nitrophenyl-α-D-glucopyranoside (pNPG), which is hydrolyzed by α-glucosidase to release the product p-nitrophenol, a color agent that can be monitored at 405 nm. For yeast α-glucosidase, mixture contained 20 µL of the enzyme (0.5 unit/mL), 120 µL of 0.1 M phosphate buffer (pH 6.9) and 10 µL of test sample at various concentrations. The mixed solution was incubated in 96-well plates at 37 °C for 15 min. After preincubation the enzymatic reaction was initiated by adding 20 µL of 5 mM pNPG solution in 0.1 M phosphate buffer (pH 6.9) and the reaction mixture was incubated for another 15 min at 37 °C. The reaction was terminated by adding 80 µL of 0.2 M sodium carbonate solution and then absorbance reading was recorded at 405 nm by microplate reader. The reaction system without tested samples was used as control and the system without α-glucosidase was used as blank for correcting the background absorbance. The inhibitory rate of sample on α-glucosidase was calculated by the following formula:
(§2) % Inhibition=control absorbance-sample absorbance/control absorbance×100

[1] = tested on: rat intestinal α-glucosidase; experiment: Mammalian α-glucosidase inhibition assay (rat intestinal acetone powder, pNPG substrate); format: biochemical; details: for inhibition of rat intestinal α-glucosidase (in words): qualitative statement; for IC50: rat intestinal α-glucosidase, pNPG, pH 6.9, 37 °C, na: no activity
Procedure: as §1, §2
The mammalian α-glucosidase were prepared from rat intestinal acetone powder (1 g), which was extracted by 25 mL of 0.1 M phosphate buffer (pH 6.9) containing 5 mM EDTA at ambient temperature. After sonication (10 min) and centrifugation (10000×g, 20 min) the obtained supernatant was dialyzed against […] phosphate buffer (pH 6.9) for 24 h. The final supernatant was used for the assay. The mammalian α-glucosidase inhibition test was carried out in the same manner as that of the yeast α-glucosidase.

Chain of yeast α-glucosidase (P53341 whole entry): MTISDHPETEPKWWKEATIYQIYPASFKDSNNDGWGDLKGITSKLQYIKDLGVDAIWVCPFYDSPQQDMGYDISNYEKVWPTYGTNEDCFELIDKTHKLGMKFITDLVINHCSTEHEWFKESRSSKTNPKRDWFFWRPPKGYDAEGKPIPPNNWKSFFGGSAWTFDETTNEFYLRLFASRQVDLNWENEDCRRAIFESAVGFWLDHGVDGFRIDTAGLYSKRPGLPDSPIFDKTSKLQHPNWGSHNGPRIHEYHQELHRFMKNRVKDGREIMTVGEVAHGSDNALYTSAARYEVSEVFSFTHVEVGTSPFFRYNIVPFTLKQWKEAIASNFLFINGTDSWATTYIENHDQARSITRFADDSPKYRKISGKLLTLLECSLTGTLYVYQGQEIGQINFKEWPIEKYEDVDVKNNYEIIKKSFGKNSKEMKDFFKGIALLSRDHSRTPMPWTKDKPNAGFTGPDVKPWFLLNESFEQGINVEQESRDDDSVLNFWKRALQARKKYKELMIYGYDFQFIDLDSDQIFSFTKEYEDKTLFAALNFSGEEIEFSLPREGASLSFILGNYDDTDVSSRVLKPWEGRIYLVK

Structure (SMILES) | inhibition of yeast α-glucosidase (in words) (yeast α-glucosidase) | inhibition of rat intestinal α-glucosidase (in words) [1] | IC50 [1] [µM]
O=C1c2ccccc2C(=O)N1C(Cc1ccccc1)c1nc2ccccc2[nH]1 (stereo not shown) [4c, 2-(1-(1H-benzo(d)imidazol-2-yl)-2-phenylethyl)isoindoline-1,3-dione] | significantly higher inhibitory action than acarbose | significantly higher inhibitory action than acarbose | 48.5 ± 2.3
O=C1c2ccccc2C(=O)N1C(Cc1ccc(O)cc1)c1nc2ccccc2[nH]1 (stereo not shown) [4d, 2-(1-(1H-benzo(d)imidazol-2-yl)-2-(4-hydroxyphenyl)ethyl)isoindoline-1,3-dione] | significantly higher inhibitory action than acarbose | significantly higher inhibitory action than acarbose | 36.7 ± 2.9
O=C1c2ccccc2C(=O)N1CC1=Nc2cccc3cccc(c23)N1 [5a, 2-((1H-perimidin-2-yl)methyl)isoindoline-1,3-dione] | did not exert good inhibition activity | did not exert good inhibition activity | 
CCC(C)C(C1=Nc2cccc3cccc(c23)N1)N1C(=O)c2ccccc2C1=O (stereo not shown) [5b, 2-(2-methyl-1-(1H-perimidin-2-yl)butyl)isoindoline-1,3-dione] | did not exert good inhibition activity | did not exert good inhibition activity | 
O=C1c2ccccc2C(=O)N1C(Cc1ccccc1)C1=Nc2cccc3cccc(c23)N1 (stereo not shown) [5c, 2-(1-(1H-perimidin-2-yl)-2-phenylethyl)isoindoline-1,3-dione] | significantly higher inhibitory action than acarbose | significantly higher inhibitory action than acarbose | 35.9 ± 2.3
O=C1c2ccccc2C(=O)N1C(Cc1ccc(O)cc1)C1=Nc2cccc3cccc(c23)N1 (stereo not shown) [5d, 2-(2-(4-hydroxyphenyl)-1-(1H-perimidin-2-yl)ethyl)isoindoline-1,3-dione] | significantly higher inhibitory action than acarbose | significantly higher inhibitory action than acarbose | 21.8 ± 1.7
CC(C)CC(C1=Nc2cccc3cccc(c23)N1)N1C(=O)c2ccccc2C1=O (stereo not shown) [5e, 2-(3-methyl-1-(1H-perimidin-2-yl)butyl)isoindoline-1,3-dione] | did not exert good inhibition activity | did not exert good inhibition activity | 
C[C@H]1O[C@H](O[C@H]2[C@H](O)[C@@H](O)[C@@H](O[C@H]3[C@H](O)[C@@H](O)C(O)O[C@@H]3CO)O[C@@H]2CO)[C@H](O)[C@@H](O)[C@@H]1N[C@H]1C=C(CO)[C@@H](O)[C@H](O)[C@H]1O (stereo partly shown) [Acarbose, reference compound] |  |  | 37.5 ± 1.4
